# From US10426751B2, “Allosteric activators for treatment of phenylketonuria” (MCMASTER UNIVERSITY, priority 2015, dated 2019)
# Target: T1, I65T PAH mutant (Homo sapiens, UniProt P00439, I65T)
# T1 construct: made in house; the paragraph itself says 'eukaryotic cell cultures' (pMAL vector)
# T1 sequence (P00439 1-452 I65T): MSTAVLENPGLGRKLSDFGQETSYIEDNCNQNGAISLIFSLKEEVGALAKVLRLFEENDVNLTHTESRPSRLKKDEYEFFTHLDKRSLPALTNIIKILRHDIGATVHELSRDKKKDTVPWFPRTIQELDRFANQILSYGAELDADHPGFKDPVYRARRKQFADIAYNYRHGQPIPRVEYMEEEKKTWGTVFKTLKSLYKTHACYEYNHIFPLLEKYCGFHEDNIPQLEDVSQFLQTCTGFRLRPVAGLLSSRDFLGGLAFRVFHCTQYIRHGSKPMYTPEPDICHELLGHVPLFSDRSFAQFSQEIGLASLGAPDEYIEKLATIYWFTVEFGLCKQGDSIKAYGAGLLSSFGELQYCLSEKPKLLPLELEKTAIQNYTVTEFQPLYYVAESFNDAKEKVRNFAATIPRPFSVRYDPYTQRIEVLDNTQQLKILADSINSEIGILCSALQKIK
# Assay: PKU-mutant activity enhancement without chemical denaturants, CE-UV
# Assay type: biochemical
# Conditions: ligand 20 μM, no denaturant
# Experimental: Expression of recombinant human WT-PAH and two PAH mutants ([…]) as fusion protein with maltose-binding protein in […] using pMAL expression vector was performed by the Martinez laboratory at the University of Bergen as described in Svebak et al., Biochem. J., 1995, 306, 589-597. Briefly, purification of the fusion proteins expressed in the pMAL vector system was performed using affinity chromatography followed by size-exclusion chromatography to remove low molecular weight components. Subsequently, the fusion proteins were cleaved by the restriction protease factor Xa and then phosphorylated by cyclic adenosine monophosphate (cAMP)-dependent protein kinase. The two clinically relevant PAH mutants, I65T and R261Q comprise single-point mutations in the regulatory and catalytic domain, respectively which are associated with highly variable phenotypes ranging from mild to classical PKU. For instance, patients with R261Q genotypes are reported to have inconsistent responses to BH4 therapy. In this work, I65T and R261Q PAH mutants were measured to have residual catalytic activities of (35±1)% and (5±0.5)% relative to WT PAH under standardized conditions (i.e., enzyme concentrations, assay buffer etc.), respectively. Stock solutions of WT-PAH and PAH mutants were prepared in enzyme reaction buffer (20 mM HEPES pH 7.0, 200 mM NaCl), and divided into separate 10 μL aliquots in 0.5 mL sterilized centrifuge tubes prior to storage at −80° C. Note that all enzyme assays were performed on aliquots of frozen enzymes thawed slowly in the fridge prior to daily use.
# Tetrameric human phenylalanine hydroxylase (PAH) enzyme kinetic assays were performed off-line under standardized conditions prior to quantification of Tyr formation by CE with UV detection. Enzyme assays were performed by first mixing together Phe (1 mM), catalase (100 nM) and PAH (0.25 μM/subunit) in a reaction buffer (20 mM HEPES and 200 mM NaCl, pH 7.0) that were equilibrated at 25° C. for 4 min. Then, ferrous (Fe^2+) ammonium sulfate (100 μM) was added to the solution for 1 min and the reaction was subsequently initiated by addition of BH4 ([…]) with DTT (5 mM) using a total volume of 100 μL. The reaction mixture was then vortexed for 60 s followed by sonication for 2 min prior to centrifugation for 10 s at 4 g and storage in a refrigerator (+4° C.). An aliquot (20 μL) was withdrawn from the quenched enzyme reaction and placed in a micro vial containing Me-Tyr as IS (100 μM) prior to CE analysis. The stability of the quenched enzyme reaction was confirmed by intermittent analysis of PAH activity over 6 h at room temperature, and no significant changes in the Tyr/IS or Phe/Tyr response ratio were measured. Enzymatic reactions were performed for both WT-PAH and two PAH mutants by pre-equilibrating each ligand for 10 min prior to addition of ferrous ion and BH4/DDT as described in enzyme reaction protocol in order to assess for ligand-induced PAH inhibition or activation.
# For instance, a recovery of 50% of residual enzyme activity was achieved without ligand when PAH was incubated in 8.0 M urea after its dilution to 0.5 M urea to trigger protein refolding. In order to further reduce enzyme reversibility, the recovery of PAH activity was subsequently assessed when it was incubated using 6.0 M GndCl for 10 min and subsequently diluted to 0.5 M GndCl in the presence or absence of screen-positive ligands (20 μM) in enzyme reaction buffer with PAH activity measurements performed by CE as described previously. […] Two lead compounds and several analogs of SA were subsequently tested using two different mutants of PAH (I65T and R261Q) without chemical denaturants after the two-tiered screening.
compound,measurement,setting,value
"Nc1c(-c2ccc3ccccc3n2)c2ccc([N+](=O)[O-])cc2c(=O)n1Cc1ccccc1 [compound III, 3-amino-2-benzyl-7-nitro-4-(2-quinolyl)-1,2-dihydroisoquinolin-1-one]",activity enhancement of I65T PAH mutant,listed as HI,~1.5 fold
"Cc1ccnc(-n2c(=S)[nH]c3sc(C)c(C)c3c2=O)c1 [compound IV, 5,6-dimethyl-3-(4-methyl-2-pyridinyl)-2-thioxo-2,3-dihydrothieno[2,3-d] pyrimidin-4(1H)-one]",activity enhancement of I65T PAH mutant,,~1.5 fold
